Data on 18 molecules can be found in patent publication US10023558B2, “Compounds” (CHIESI FARMACEUTICI S.P.A., priority 2016, dated 2018).

By IC50 is commonly meant the point on the concentration scale where inhibition reaches its midpoint.

This experiment concerns the target T1, human neutrophil elastase (HNE) (Homo sapiens, UniProt P08246).
T1 construct: purchased Sigma E8140
T1 sequence (P08246 30-247 limits assumed): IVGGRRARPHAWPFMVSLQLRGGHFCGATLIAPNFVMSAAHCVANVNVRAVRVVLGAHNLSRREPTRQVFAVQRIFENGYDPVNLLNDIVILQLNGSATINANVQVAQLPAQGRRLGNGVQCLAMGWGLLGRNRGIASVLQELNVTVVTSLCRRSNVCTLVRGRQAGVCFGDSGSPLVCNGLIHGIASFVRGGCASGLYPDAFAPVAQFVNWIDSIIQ
The experiment is described as follows: HNE Enzyme Assay (fluorogenic peptide substrate MeOSuc-Ala-Ala-Pro-Val-AMC). The experiment is classed as biochemical. To be noted: human leukocyte elastase 0.00072 U/mL, substrate 100 μM, 25° C., 30 minutes, at least two separate experiments; read-out: HNE inhibition (IC50 values). On the procedure:
Compounds of this invention were tested for potency in a human neutrophil elastase (HNE) enzyme activity assay.
Assays were performed in 96-well plates in a total assay volume of 100 μL. The final concentration of elastase enzyme (human leukocyte elastase, Sigma E8140) was 0.00072 U/mL. The peptide substrate (MeOSuc-Ala-Ala-Pro-Val-AMC, Calbiochem #324740) was used at a final concentration of 100 μM. The final concentration of DMSO was 1% in the assay buffer (0.05M Tris.HCl, 0.1M NaCl, 0.1M CaCl2, 0.0005% Brij-35, pH 7.5). The enzymatic reaction was started by addition of the enzyme and incubated at 25° C. for 30 minutes. After incubation, the reaction was stopped by addition of soybean trypsin inhibitor (Sigma T9003) at a final concentration of 50 μg/well. Fluorescence was measured using a Molecular Devices fluorescence plate reader using 380 nm excitation and 460 nm emission wavelengths.
A concentration response to each compound was performed and the effect of compound in each experiment was expressed as a percentage inhibition of the control enzyme fluorescence. Dose response curves were plotted and compound potency (IC50) was determined. Compounds were tested in at least two separate experiments.
In the case of `Cc1c(-c2ccnn2-c2ccc(C#N)cc2)n(C(=O)N[C@@H](C)c2cc[n+](C)cc2)c(=O)n1-c1cccc(C(F)(F)F)c1` [Example 38, 4-((S)-1-{[5-[2-(4-Cyano-phenyl)-2H-pyrazol-3-yl]-4-methyl-2-oxo-3-(3-trifluoromethyl-phenyl)-2,3-dihydro-imidazole-1-carbonyl]-amino}-ethyl)-1-methyl-pyridinium benzene sulfonate], the IC50 is under 1 nM.
Regarding `Cc1c(-c2ccnn2-c2ccc(C#N)cc2)n(C(=O)N[C@@H]2C[C@H]3CC[C@@H](C2)[N+]3(C)C)c(=O)n1-c1cccc(C(F)(F)F)c1` [Example 39, (1R,3S,5S)-3-{[5-[2-(4-Cyano-phenyl)-2H-pyrazol-3-yl]-4-methyl-2-oxo-3-(3-trifluoromethyl-phenyl)-2,3-dihydro-imidazole-1-carbonyl]-amino}-8,8-dimethyl-8-azonia-bicyclo[3.2.1]octane benzene sulfonate], the IC50 is under 1 nM.
In the case of `CC[N+]1(CC)CCC(NC(=O)n2c(-c3ccnn3-c3ccc(C#N)cc3)c(C)n(-c3cccc(C(F)(F)F)c3)c2=O)CC1` [Example 40, 4-{[5-[2-(4-Cyano-phenyl)-2H-pyrazol-3-yl]-4-methyl-2-oxo-3-(3-trifluoromethyl-phenyl)-2,3-dihydro-imidazole-1-carbonyl]-amino}-1,1-diethyl-piperidinium benzene sulfonate], the IC50 is under 1 nM.
The value for `Cc1c(-c2ccnn2-c2ccc(C#N)cc2)n(C(=O)N[C@H]2CC[C@H]([N+](C)(C)C)CC2)c(=O)n1-c1cccc(C(F)(F)F)c1` [Example 41, (Trans-4-{[5-[2-(4-cyano-phenyl)-2H-pyrazol-3-yl]-4-methyl-2-oxo-3-(3-trifluoromethyl-phenyl)-2,3-dihydro-imidazole-1-carbonyl]-amino}-cyclohexyl)-trimethyl-ammonium benzene sulfonate] was under 1 nM.
`CC[n+]1ccc([C@H](C)NC(=O)n2c(-c3ccnn3-c3ccc(C#N)cc3)c(C)n(-c3cccc(C(F)(F)F)c3)c2=O)cc1` [Example 42, 4-((S)-1-{[5-[2-(4-Cyano-phenyl)-2H-pyrazol-3-yl]-4-methyl-2-oxo-3-(3-trifluoromethyl-phenyl)-2,3-dihydro-imidazole-1-carbonyl]-amino}-ethyl)-1-ethyl-pyridinium benzene sulfonate]: the IC50 is under 1 nM.
As for `Cc1c(-c2ccnn2-c2ccc(C#N)cc2)n(C(=O)N[C@H]2CC[C@H]([N+](C)(C)Cc3ccccc3)CC2)c(=O)n1-c1cccc(C(F)(F)F)c1` [Example 43, Benzyl-(trans-4-{[5-[2-(4-cyano-phenyl)-2H-pyrazol-3-yl]-4-methyl-2-oxo-3-(3-trifluoromethyl-phenyl)-2,3-dihydro-imidazole-1-carbonyl]-amino}-cyclohexyl)-dimethyl-ammonium bromide], the figure is under 1 nM; as for `CC[N+](C)(C)[C@H]1CC[C@H](NC(=O)n2c(-c3ccnn3-c3ccc(C#N)cc3)c(C)n(-c3cccc(C(F)(F)F)c3)c2=O)CC1` [Example 44, (Trans-4-{[5-[2-(4-cyano-phenyl)-2H-pyrazol-3-yl]-4-methyl-2-oxo-3-(3-trifluoromethyl-phenyl)-2,3-dihydro-imidazole-1-carbonyl]-amino}-cyclohexyl)-ethyl-dimethyl-ammonium benzene sulfonate], under 1 nM.
As for `Cc1c(-c2ccnn2-c2ccc(C#N)cc2)n(C(=O)N[C@H]2CC[C@@H]([N+](C)(C)C)CC2)c(=O)n1-c1cccc(C(F)(F)F)c1` [Example 45, (Cis-4-{[5-[2-(4-cyano-phenyl)-2H-pyrazol-3-yl]-4-methyl-2-oxo-3-(3-trifluoromethyl-phenyl)-2,3-dihydro-imidazole-1-carbonyl]-amino}-cyclohexyl)-trimethyl-ammonium benzene sulfonate], the figure is 1 to 10 nM; as for `Cc1c(-c2ccnn2-c2ccc(C#N)cc2)n(C(=O)N[C@H]2CC[C@@H]([N+](C)(C)Cc3ccccc3)CC2)c(=O)n1-c1cccc(C(F)(F)F)c1` [Example 46, Benzyl-(cis-4-{[5-[2-(4-cyano-phenyl)-2H-pyrazol-3-yl]-4-methyl-2-oxo-3-(3-trifluoromethyl-phenyl)-2,3-dihydro-imidazole-1-carbonyl]-amino}-cyclohexyl)-dimethyl-ammonium bromide], 1 to 10 nM.
As for `Cc1c(-c2ccnn2-c2ccc(C#N)cc2)n(C(=O)NC(C)(C)c2cc[n+](C)cc2)c(=O)n1-c1cccc(C(F)(F)F)c1` [Example 47, 4-(1-{[5-[2-(4-Cyano-phenyl)-2H-pyrazol-3-yl]-4-methyl-2-oxo-3-(3-trifluoromethyl-phenyl)-2,3-dihydro-imidazole-1-carbonyl]-amino}-1-methyl-ethyl)-1-methyl-pyridinium benzene sulfonate], the half-inhibitory concentration (IC50) is under 1 nM.
As for `CC[N+](C)(C)[C@H]1CC[C@@H](NC(=O)n2c(-c3ccnn3-c3ccc(C#N)cc3)c(C)n(-c3cccc(C(F)(F)F)c3)c2=O)CC1` [Example 48, (Cis-4-{[5-[2-(4-cyano-phenyl)-2H-pyrazol-3-yl]-4-methyl-2-oxo-3-(3-trifluoromethyl-phenyl)-2,3-dihydro-imidazole-1-carbonyl]-amino}-cyclohexyl)-ethyl-dimethyl-ammonium benzene sulfonate], the figure is 1 to 10 nM; as for `Cc1c(-c2ccnn2-c2ccc(C#N)cc2)n(C(=O)N[C@@H](C)C(=O)N2CC[N+](C)(Cc3ccccc3)CC2)c(=O)n1-c1cccc(C(F)(F)F)c1` [Example 49, 1-Benzyl-4-((S)-2-{[5-[2-(4-cyano-phenyl)-2H-pyrazol-3-yl]-4-methyl-2-oxo-3-(3-trifluoromethyl-phenyl)-2,3-dihydro-imidazole-1-carbonyl]-amino}-propionyl)-1-methyl-piperazin-1-ium bromide], under 1 nM.
As for `Cc1c(-c2ccnn2-c2ccc(C#N)cc2)n(C(=O)N[C@@H](C)C(=O)N2CC[N+](C)(C)CC2)c(=O)n1-c1cccc(C(F)(F)F)c1` [Example 50, 4-((S)-2-{[5-[2-(4-Cyano-phenyl)-2H-pyrazol-3-yl]-4-methyl-2-oxo-3-(3-trifluoromethyl-phenyl)-2,3-dihydro-imidazole-1-carbonyl]-amino}-propionyl)-1,1-dimethyl-piperazin-1-ium benzene sulfonate], the figure is under 1 nM; as for `Cc1c(-c2ccnn2-c2ccc(C#N)cc2)n(C(=O)NC2CC3(CC[N+](C)(C)CC3)C2)c(=O)n1-c1cccc(C(F)(F)F)c1` [Example 51, 2-{[5-[2-(4-Cyano-phenyl)-2H-pyrazol-3-yl]-4-methyl-2-oxo-3-(3-trifluoromethyl-phenyl)-2,3-dihydro-imidazole-1-carbonyl]-amino}-7,7-dimethyl-7-azonia-spiro[3.5]nonane benzene sulfonate], under 1 nM.
As for `Cc1c(-c2ccnn2-c2ccc(C#N)cc2)n(C(=O)N[C@H](C)c2cc[n+](C)cc2)c(=O)n1-c1cccc(C(F)(F)F)c1` [Example 52, 4-((R)-1-{[5-[2-(4-Cyano-phenyl)-2H-pyrazol-3-yl]-4-methyl-2-oxo-3-(3-trifluoromethyl-phenyl)-2,3-dihydro-imidazole-1-carbonyl]-amino}-ethyl)-1-methyl-pyridinium benzene sulfonate], the figure is 1 to 10 nM; as for `Cc1c(-c2ccnn2-c2ccc(C#N)cc2)n(C(=O)N[C@H]2CC[C@@H](C[N+](C)(C)C)CC2)c(=O)n1-c1cccc(C(F)(F)F)c1` [Example 53, (Cis-4-{[5-[2-(4-cyano-phenyl)-2H-pyrazol-3-yl]-4-methyl-2-oxo-3-(3-trifiuoromethyl-phenyl)-2,3-dihydro-imidazole-1-carbonyl]-amino}-cyclohexylmethyl)-trimethyl-ammonium benzene sulfonate], 1 to 10 nM.
As for `Cc1c(-c2ccnn2-c2ccc(C#N)cc2)n(C(=O)N[C@H]2CC[C@@H](C[N+](C)(C)Cc3ccccc3)CC2)c(=O)n1-c1cccc(C(F)(F)F)c1` [Example 54, Benzyl-(cis-4-{[5-[2-(4-cyano-phenyl)-2H-pyrazol-3-yl]-4-methyl-2-oxo-3-(3-trifiuoromethyl-phenyl)-2,3-dihydro-imidazole-1-carbonyl]-amino}-cyclohexylmethyl)-dimethyl-ammonium bromide], the IC50 fell in the range of 1 to 10 nM.
Regarding `CC[N+](C)(C)C[C@H]1CC[C@@H](NC(=O)n2c(-c3ccnn3-c3ccc(C#N)cc3)c(C)n(-c3cccc(C(F)(F)F)c3)c2=O)CC1` [Example 55, (Cis-4-{[5-[2-(4-cyano-phenyl)-2H-pyrazol-3-yl]-4-methyl-2-oxo-3-(3-trifluoromethyl-phenyl)-2,3-dihydro-imidazole-1-carbonyl]-amino}-cyclohexylmethyl)-ethyl-dimethyl-ammonium benzene sulfonate], the IC50 lay within 1 to 10 nM.
